Experimental data: patent US9771343B2, “2-alkyl-or-aryl-substituted tanshinone derivatives, and preparation method and application thereof” (Hangzhou Bensheng Pharmaceutical Co., Ltd., priority 2011, dated 2017)
≈ marks a conversion by molar mass, not a printed value.

Key:
[1] = tested on: RKO (human colon adenocarcinoma cell); assay: MTT cell growth inhibition, RKO cells, 72 h; type: cell-based; conditions: RKO, 72 h
Description: (§1) The standard sample of tanshinone I (TA) and the 2-alkyl- or 2-aromatic-substituted tanshinone I derivatives of the present invention are sufficiently dissolved in dimethylsulfoxide to produce a stock solution of 10 mg/mL, which is refrigerated at 4° C. and stored in dark, and is diluted with a cell culture medium to the desired concentration prior to experimentation.
(§2) Obtaining 6000 well-growing human solid tumor cells and inoculating them into wells of a 96-well cell culture plate. The culture medium is DMEM High Glucose cell culture medium containing 10% fetal bovine serum. The plate is placed in a carbon dioxide cell incubator (5% CO2) at 37° C. and incubated for 24 hours. After adding the 2-alkyl- or 2-aromatic-substituted tanshinone I derivatives of different concentrations and mixing uniformly, the plate is placed in a carbon dioxide cell incubator (5% CO2) at 37° C. and incubated for 72 hours. Then the viable cell concentration is determined by MTT method. In this experiment, the cell viability in control group (not treated with any compound) is set as 100%, and the cell viability (%) after treatment by the compounds and the half maximum inhibitory concentration for the leukemia cell at 72 hours (IC50 value of 72 hours, μg/mL) are calculated.

[2] = tested on: Becap37 (human breast cancer cell); assay: MTT cell growth inhibition, Becap37 cells, 72 h; type: cell-based; conditions: Becap-37, 72 h
Description: as §1, §2

Hep G2 cells = conditions: in vitro, literature report; cited from earlier work
[3] = tested on: Hep G2 (human liver cancer cell); assay: MTT cell growth inhibition, Hep G2 cells, 72 h; type: cell-based; conditions: Hep G2, 72 h
Description: as §1, §2

[4] = tested on: NB4 (acute promyelocytic leukemia, AML); assay: MTT cell growth inhibition, NB4 leukemia cells, 72 h; type: cell-based; conditions: NB4, 72 h
Description: as §1, with “with” for “with a”, “to a” for “to the”
as §2, with “leukemia” for “human solid tumor”, “the RPMI-1640” for “DMEM High Glucose”, “serum.” for “serum. The plate is placed in a carbon dioxide cell incubator (5% CO2) at 37° C. and incubated for 24 hours.”, “adding on the second day” for “adding”, “uniformly, placing” for “uniformly,”, “plate” for “plate is placed”

A549 (human lung cancer) = assay: MTT cell growth inhibition, A549 cells, 72 h; type: cell-based; conditions: A549, 72 h
Description: as §1, §2

[5] = tested on: MGC 803 (human gastric cancer cell); assay: MTT cell growth inhibition, MGC 803 cells, 72 h; type: cell-based; conditions: MGC-803, 72 h
Description: as §1, §2

[6] = background statement; cited from earlier work
[7] = tested on: RPMI8226 (multiple myeloma); assay: MTT cell growth inhibition, RPMI8226 multiple myeloma cells, 72 h; type: cell-based, human; conditions: RPMI 8226, 72 h
Description: as §1, with “with” for “with a”, “to a” for “to the”
as §2, with “leukemia” for “human solid tumor”, “the RPMI-1640” for “DMEM High Glucose”, “serum.” for “serum. The plate is placed in a carbon dioxide cell incubator (5% CO2) at 37° C. and incubated for 24 hours.”, “adding on the second day” for “adding”, “uniformly, placing” for “uniformly,”, “plate” for “plate is placed”

tumor-bearing nude mice = conditions: literature report; cited from earlier work
[8] = tested on: Jurkat (acute lymphoblastic leukemia, ALL); assay: MTT cell growth inhibition, Jurkat leukemia cells, 72 h; type: cell-based; conditions: 72 h
Description: as §1, with “with” for “with a”, “to a” for “to the”
as §2, with “leukemia” for “human solid tumor”, “the RPMI-1640” for “DMEM High Glucose”, “serum.” for “serum. The plate is placed in a carbon dioxide cell incubator (5% CO2) at 37° C. and incubated for 24 hours.”, “adding on the second day” for “adding”, “uniformly, placing” for “uniformly,”, “plate” for “plate is placed”

PC-3 (prostate cancer) = assay: MTT cell growth inhibition, PC-3 cells, 72 h; type: cell-based, human; conditions: PC-3, 72 h
Description: as §1, §2

[9] = tested on: K562/adr (drug-resistant, chronic myeloid leukemia, CML); assay: MTT cell growth inhibition, K562/adr leukemia cells, 72 h; type: cell-based; conditions: K562/ADR
Description: as §1, with “with” for “with a”, “to a” for “to the”
as §2, with “leukemia” for “human solid tumor”, “the RPMI-1640” for “DMEM High Glucose”, “serum.” for “serum. The plate is placed in a carbon dioxide cell incubator (5% CO2) at 37° C. and incubated for 24 hours.”, “adding on the second day” for “adding”, “uniformly, placing” for “uniformly,”, “plate” for “plate is placed”

[10] = tested on: CaES-17 (esophageal cancer cell); assay: MTT cell growth inhibition, CaES-17 cells, 72 h; type: cell-based, human; conditions: CaEs-17, 72 h
Description: as §1, §2

[11] = background statement; cited from earlier work; remark: listed apart in the source
[12] = tested on: CNE (nasopharyngeal carcinoma cell); assay: MTT cell growth inhibition, CNE cells, 72 h; type: cell-based, human; conditions: CNE, 72 h
Description: as §1, §2

MG63 (osteosarcoma) = assay: MTT cell growth inhibition, MG63 cells, 72 h; type: cell-based, human; conditions: MG-63, 72 h
Description: as §1, §2

[13] = tested on: SGC-7901 human gastric adenocarcinoma cells; conditions: concentration dependent within a certain range, literature report; cited from earlier work
[14] = tested on: Hep-2 (laryngeal carcinoma); assay: MTT cell growth inhibition, Hep-2 cells, 72 h; type: cell-based, human; conditions: Hep-2, 72 h
Description: as §1, §2

[15] = tested on: Kasumi-1 (acute myeloid leukemia M2 type, AML-M2); assay: MTT cell growth inhibition, Kasumi-1 leukemia cells, 72 h; type: cell-based; conditions: Kasumi-1, 72 h
Description: as §1, with “with” for “with a”, “to a” for “to the”
as §2, with “leukemia” for “human solid tumor”, “the RPMI-1640” for “DMEM High Glucose”, “serum.” for “serum. The plate is placed in a carbon dioxide cell incubator (5% CO2) at 37° C. and incubated for 24 hours.”, “adding on the second day” for “adding”, “uniformly, placing” for “uniformly,”, “plate” for “plate is placed”

[16] = tested on: PANC-1 (pancreatic cancer); assay: MTT cell growth inhibition, PANC-1 cells, 72 h; type: cell-based, human; conditions: PANC-1, 72 h
Description: as §1, §2

[17] = tested on: SK-OV-3 (ovarian cancer cell); assay: MTT cell growth inhibition, SK-OV-3 cells, 72 h; type: cell-based, human; conditions: SK-OV-3, 72 h
Description: as §1, §2

[18] = tested on: Hela (human cervical cancer cell); assay: MTT cell growth inhibition, Hela cells, 72 h; type: cell-based; conditions: Hela, 72 h
Description: as §1, §2

[19] = tested on: H9 (acute lymphoblastic leukemia, ALL); assay: MTT cell growth inhibition, H9 leukemia cells, 72 h; type: cell-based; conditions: H9, 72 h
Description: as §1, with “with” for “with a”, “to a” for “to the”
as §2, with “leukemia” for “human solid tumor”, “the RPMI-1640” for “DMEM High Glucose”, “serum.” for “serum. The plate is placed in a carbon dioxide cell incubator (5% CO2) at 37° C. and incubated for 24 hours.”, “adding on the second day” for “adding”, “uniformly, placing” for “uniformly,”, “plate” for “plate is placed”

[20] = tested on: U87 MG (malignant glioma cell); assay: MTT cell growth inhibition, U87 MG cells, 72 h; type: cell-based, human; conditions: U87-MG, 72 h
Description: as §1, §2

Q: For `Cc1coc2c1C(=O)C(=O)c1c-2ccc2c(C)cccc12` [TA, 1,6-dimethyl-phenanthreno [1,2-b]furan-10,11-diketone, reference compound], which IC50 [1] is on record?
A: 1.83 µg/mL (≈ 6.62 µM)

Q: What about the IC90 [1] of the same molecule?
A: >16 µg/mL

Q: What about the IC50 [2] of the same molecule?
A: 3.03 µg/mL (≈ 11 µM)

Q: And the IC90 [2]?
A: >16 µg/mL

Q: What about the “effect on proliferation of Hep G2 cells” value (Hep G2 cells) of the same molecule?
A: can inhibit the proliferation of Hep G2 cells

Q: What about the IC50 [3] of the same molecule?
A: 2.19 µg/mL (≈ 7.93 µM)

Q: What about the IC90 [3] of the same molecule?
A: 22.13 µg/mL (≈ 80.1 µM)

Q: And the IC50 [4]?
A: 0.98 µg/mL (≈ 3.55 µM)

Q: What about the IC90 [4] of the same molecule?
A: 2.5 µg/mL (≈ 9.05 µM)

Q: And the IC50 (A549 (human lung cancer))?
A: 4.03 µg/mL (≈ 14.6 µM)

Q: And the IC90 (A549 (human lung cancer))?
A: 17.29 µg/mL (≈ 62.6 µM)

Q: And the IC50 [5]?
A: 1.62 µg/mL (≈ 5.86 µM)

Q: What about the IC90 [5] of the same molecule?
A: 9.26 µg/mL (≈ 33.5 µM)

Q: And the solubility in water [6]?
A: poor solubility in water

Q: What about the IC50 [7] of the same molecule?
A: 0.96 µg/mL (≈ 3.47 µM)

Q: What about the IC90 [7] of the same molecule?
A: 10.86 µg/mL (≈ 39.3 µM)

Q: What about the “effect on tumor growth in tumor-bearing nude mice” value (tumor-bearing nude mice) of the same molecule?
A: can inhibit the tumor growth in the mice

Q: And the IC50 [8]?
A: 1.74 µg/mL (≈ 6.3 µM)

Q: And the IC90 [8]?
A: 8.42 µg/mL (≈ 30.5 µM)

Q: What about the IC50 (PC-3 (prostate cancer)) of the same molecule?
A: 6.63 µg/mL (≈ 24 µM)

Q: What about the IC90 (PC-3 (prostate cancer)) of the same molecule?
A: 10.57 µg/mL (≈ 38.3 µM)

Q: What about the IC50 [9] of the same molecule?
A: 0.88 µg/mL (≈ 3.19 µM)

Q: What about the IC90 [9] of the same molecule?
A: 4.17 µg/mL (≈ 15.1 µM)

Q: What about the IC50 [10] of the same molecule?
A: 3.18 µg/mL (≈ 11.5 µM)

Q: What about the IC90 [10] of the same molecule?
A: 16.00 µg/mL (≈ 57.9 µM)

Q: And the in vivo bioavailability [11]?
A: low in vivo bioavailability

Q: And the IC50 [12]?
A: 7.4 µg/mL (≈ 26.8 µM)

Q: And the IC90 [12]?
A: >16 µg/mL

Q: And the IC50 (MG63 (osteosarcoma))?
A: 0.96 µg/mL (≈ 3.47 µM)

Q: What about the IC90 (MG63 (osteosarcoma)) of the same molecule?
A: >16 µg/mL

Q: What about the “effect on growth of SGC-7901 cells cultured in vitro” value [13] of the same molecule?
A: significant inhibitory effect

Q: And the IC50 [14]?
A: 3.15 µg/mL (≈ 11.4 µM)

Q: And the IC90 [14]?
A: >16 µg/mL

Q: And the IC50 [15]?
A: 0.99 µg/mL (≈ 3.58 µM)

Q: What about the IC90 [15] of the same molecule?
A: 3.62 µg/mL (≈ 13.1 µM)

Q: What about the IC50 [16] of the same molecule?
A: 2.7 µg/mL (≈ 9.77 µM)

Q: What about the IC90 [16] of the same molecule?
A: >16 µg/mL

Q: What about the IC50 [17] of the same molecule?
A: >16 µg/mL

Q: What about the IC90 [17] of the same molecule?
A: >16 µg/mL

Q: What about the IC50 [18] of the same molecule?
A: 4 µg/mL (≈ 14.5 µM)

Q: And the IC90 [18]?
A: >16 µg/mL

Q: And the IC50 [19]?
A: 3.5 µg/mL (≈ 12.7 µM)

Q: What about the IC90 [19] of the same molecule?
A: 13.06 µg/mL (≈ 47.3 µM)

Q: What about the IC50 [20] of the same molecule?
A: 6.36 µg/mL (≈ 23 µM)

Q: What about the IC90 [20] of the same molecule?
A: 14.63 µg/mL (≈ 53 µM)
